Data: ChEMBL document CHEMBL2440076, “New triarylpyrazoles as broad-spectrum anticancer agents: design, synthesis, and biological evaluation” (Eur J Med Chem, 2013)

Key:
[1] = test system: UACC-257; assay: Growth inhibition of human UACC257 cells assessed as cell growth at 5X10'-9 M after 48 hrs by sulforhodamine B assay; type: functional; settings: UACC-257, 48 h, read-out: Activity
[2] = Growth inhibition of human NCI-ADR-RES cells after 48 hrs by sulforhodamine B assay; type: functional; settings: for CC50: read-out: LC50 (the source's name)
[3] = test system: MCF7; assay: Growth inhibition of human MCF7 cells after 48 hrs by sulforhodamine B assay; type: functional; settings: MCF7, 48 h
[4] = test system: HOP-62; assay: Growth inhibition of human HOP62 cells assessed as cell growth at 10 uM after 48 hrs by sulforhodamine B assay; type: functional; settings: HOP-62, 48 h, read-out: Activity
[5] = test system: A549; assay: Growth inhibition of human A549/ATCC cells assessed as cell growth at 5X10'-8 M after 48 hrs by sulforhodamine B assay; type: functional; settings: A549, 48 h, read-out: Activity
[6] = test system: OVCAR-4; assay: Growth inhibition of human OVCAR4 cells assessed as cell growth at 10 uM after 48 hrs by sulforhodamine B assay; type: functional; settings: OVCAR-4, 48 h, read-out: Activity
[7] = test system: OVCAR-3; assay: Growth inhibition of human OVCAR3 cells assessed as cell growth at 5X10'-5 M after 48 hrs by sulforhodamine B assay; type: functional; settings: OVCAR-3, 48 h, read-out: Activity
[8] = test system: BT-549; assay: Growth inhibition of human BT549 cells assessed as cell growth at 5X10'-6 M after 48 hrs by sulforhodamine B assay; type: functional; settings: BT-549, 48 h, read-out: Activity
[9] = test system: HOP-92; assay: Growth inhibition of human HOP92 cells assessed as cell growth at 5X10'-7 M after 48 hrs by sulforhodamine B assay; type: functional; settings: HOP-92, 48 h, read-out: Activity
[10] = test system: OVCAR-3; assay: Growth inhibition of human OVCAR3 cells after 48 hrs by sulforhodamine B assay; type: functional, cell-based; settings: OVCAR-3, 48 h; for CC50: read-out: LC50 (the source's name)
[11] = test system: SW-620; assay: Growth inhibition of human SW620 cells assessed as cell growth at 5X10'-7 M after 48 hrs by sulforhodamine B assay; type: functional; settings: SW-620, 48 h, read-out: Activity
[12] = test system: SK-MEL-2; assay: Growth inhibition of human SK-MEL-2 cells after 48 hrs by sulforhodamine B assay; type: functional; settings: SK-MEL-2, 48 h
[13] = test system: SNB-19; assay: Growth inhibition of human SNB19 cells assessed as cell growth at 5X10'-9 M after 48 hrs by sulforhodamine B assay; type: functional; settings: SNB-19, 48 h, read-out: Activity
[14] = test system: KM12; assay: Growth inhibition of human KM12 cells assessed as cell growth at 5X10'-5 M after 48 hrs by sulforhodamine B assay; type: functional; settings: KM12, 48 h, read-out: Activity
[15] = test system: SW-620; assay: Growth inhibition of human SW620 cells assessed as cell growth at 5X10'-8 M after 48 hrs by sulforhodamine B assay; type: functional; settings: SW-620, 48 h, read-out: Activity
[16] = test system: SK-MEL-5; assay: Growth inhibition of human SK-MEL-5 cells after 48 hrs by sulforhodamine B assay; type: functional; settings: SK-MEL-5, 48 h
[17] = test system: K562; assay: Growth inhibition of human K562 cells assessed as cell growth at 5X10'-9 M after 48 hrs by sulforhodamine B assay; type: functional; settings: K562, 48 h, read-out: Activity
[18] = test system: HOP-92; assay: Growth inhibition of human HOP92 cells assessed as cell growth at 5X10'-8 M after 48 hrs by sulforhodamine B assay; type: functional; settings: HOP-92, 48 h, read-out: Activity
[19] = test system: NCI-H226; assay: Growth inhibition of human NCI-H226 cells assessed as cell growth at 5X10'-7 M after 48 hrs by sulforhodamine B assay; type: functional; settings: NCI-H226, 48 h, read-out: Activity
[20] = test system: 786-0; assay: Growth inhibition of human 786-0 cells assessed as cell growth at 5X10'-9 M after 48 hrs by sulforhodamine B assay; type: functional; settings: 786-0, 48 h, read-out: Activity
[21] = test system: MCF7; assay: Growth inhibition of human MCF7 cells assessed as cell growth at 5X10'-8 M after 48 hrs by sulforhodamine B assay; type: functional; settings: MCF7, 48 h, read-out: Activity
[22] = test system: HOP-92; assay: Growth inhibition of human HOP92 cells assessed as cell growth at 10 uM after 48 hrs by sulforhodamine B assay; type: functional; settings: HOP-92, 48 h, read-out: Activity
[23] = test system: ACHN; assay: Growth inhibition of human ACHN cells after 48 hrs by sulforhodamine B assay; type: functional; settings: for CC50: read-out: LC50 (the source's name)
[24] = test system: UACC-62; assay: Growth inhibition of human UACC62 cells assessed as cell growth at 5X10'-9 M after 48 hrs by sulforhodamine B assay; type: functional; settings: UACC-62, 48 h, read-out: Activity
[25] = test system: SK-MEL-28; assay: Growth inhibition of human SK-MEL-28 cells assessed as cell growth at 10 uM after 48 hrs by sulforhodamine B assay; type: functional; settings: SK-MEL-28, 48 h, read-out: Activity
[26] = Growth inhibition of human HCC2998 cells assessed as cell growth at 10 uM after 48 hrs by sulforhodamine B assay; type: functional; settings: HCC 2998, 48 h, read-out: Activity
[27] = test system: RPMI-8226; assay: Growth inhibition of human RPMI8226 cells assessed as cell growth at 5X10'-8 M after 48 hrs by sulforhodamine B assay; type: functional; settings: RPMI-8226, 48 h, read-out: Activity
[28] = test system: RXF 393; assay: Growth inhibition of human RXF393 cells assessed as cell growth at 5X10'-5 M after 48 hrs by sulforhodamine B assay; type: functional; settings: RXF 393, 48 h, read-out: Activity
[29] = test system: UACC-257; assay: Growth inhibition of human UACC257 cells assessed as cell growth at 10 uM after 48 hrs by sulforhodamine B assay; type: functional; settings: UACC-257, 48 h, read-out: Activity
[30] = test system: RPMI-8226; assay: Growth inhibition of human RPMI8226 cells assessed as cell growth at 5X10'-9 M after 48 hrs by sulforhodamine B assay; type: functional; settings: RPMI-8226, 48 h, read-out: Activity
[31] = test system: HCT-116; assay: Growth inhibition of human HCT116 cells assessed as cell growth at 5X10'-5 M after 48 hrs by sulforhodamine B assay; type: functional; settings: HCT-116, 48 h, read-out: Activity
[32] = test system: MCF7; assay: Growth inhibition of human MCF7 cells assessed as cell growth at 5X10'-5 M after 48 hrs by sulforhodamine B assay; type: functional; settings: MCF7, 48 h, read-out: Activity
[33] = test system: IGROV-1; assay: Growth inhibition of human IGROV1 cells assessed as cell growth at 5X10'-9 M after 48 hrs by sulforhodamine B assay; type: functional; settings: IGROV-1, 48 h, read-out: Activity
[34] = test system: MDA-MB-468; assay: Growth inhibition of human MDA-MB-468 cells assessed as cell growth at 5X10'-6 M after 48 hrs by sulforhodamine B assay; type: functional; settings: MDA-MB-468, 48 h, read-out: Activity
[35] = test system: U-251; assay: Growth inhibition of human U251 cells assessed as cell growth at 5X10'-6 M after 48 hrs by sulforhodamine B assay; type: functional; settings: U-251, 48 h, read-out: Activity
[36] = Growth inhibition of human HCC2998 cells assessed as cell growth at 5X10'-6 M after 48 hrs by sulforhodamine B assay; type: functional; settings: HCC 2998, 48 h, read-out: Activity

For `O=C(Nc1cccc(-n2cc(-c3ccncc3)c(-c3ccc(Cl)c(O)c3)n2)c1)Nc1cc(C(F)(F)F)cc(C(F)(F)F)c1`, the growth at 0.005 µM [1] was 94%, the GI50 [2] was 1070 nM and the TGI [2] was 5250 nM. For the same molecule, the CC50 [2] was 38700 nM, the GI50 [3] was 540 nM and the LC50 [3] was 31500 nM. For the same molecule, the TGI [3] was 5790 nM, the growth at 10 µM [4] was -86.1% and the growth at 0.05 µM [5] was 94%. It also gave a growth at 10 µM [6] of 0.87%, a growth at 50 µM [7] of -94% and a growth at 5 µM [8] of -65%. It also gave a growth at 0.5 µM [9] of 45%, a GI50 [10] of 395 nM and an IC50 [10] of 400 nM. For the same molecule, the TGI [10] was 1200 nM, the CC50 [10] was 3310 nM and the growth at 0.5 µM [11] was 85%. The GI50 [12] was 1250 nM, the LC50 (50% lethal concentration) [12] was 14100 nM and the TGI [12] was 3030 nM. It also gave a growth at 0.005 µM [13] of 90%, a growth at 50 µM [14] of -85% and a growth at 0.05 µM [15] of 101%. The GI50 [16] was 600 nM, the LC50 (concentration killing 50% of cells) [16] was 2620 nM and the TGI [16] was 1250 nM. For the same molecule, the growth at 0.005 µM [17] was 105%, the growth at 0.05 µM [18] was 75% and the growth at 0.5 µM [19] was 79%. For the same molecule, the growth at 0.005 µM [20] was 100%, the growth at 0.05 µM [21] was 85% and the growth at 10 µM [22] was -45.8%. For the same molecule, the GI50 [23] was 624 nM, the TGI [23] was 5270 nM and the CC50 [23] was 17300 nM. The growth at 0.005 µM [24] was 95%, the growth at 10 µM [25] was -62.4% and the growth at 10 µM [26] was -56.9%. For the same molecule, the growth at 0.05 µM [27] was 95%, the growth at 50 µM [28] was -79% and the growth at 10 µM [29] was -50.9%. The growth at 0.005 µM [30] was 97%, the growth at 50 µM [31] was -96% and the growth at 50 µM [32] was -64%. The growth at 0.005 µM [33] was 108%, the growth at 5 µM [34] was -14% and the growth at 5 µM [35] was -83%. For the same molecule, the growth at 5 µM [36] was -43%.

Molecule `COc1cc(-c2nn(-c3cccc(NC(=O)Nc4cccc(C(F)(F)F)c4)c3)cc2-c2ccncc2)ccc1Cl` has a growth at 0.005 µM [1] of 96%, a GI50 [2] of 783 nM and a TGI [2] of 3640 nM. The CC50 [2] was greater than 50000 nM, the GI50 [3] was 751 nM and the LC50 [3] was greater than 50000 nM. It also gave a TGI [3] of 7720 nM, a growth at 10 µM [4] of -29.9% and a growth at 0.05 µM [5] of 97%. The growth at 10 µM [6] was 11.1%, the growth at 50 µM [7] was -54% and the growth at 5 µM [8] was -12%. For the same molecule, the growth at 0.5 µM [9] was 55%, the GI50 [10] was 579 nM and the IC50 [10] was 580 nM. It also gave a TGI [10] of 1870 nM, a CC50 [10] of 24700 nM and a growth at 0.5 µM [11] of 79%. It also gave a GI50 [12] of 970 nM, an LC50 (50% lethal concentration) [12] of 3960 nM and a TGI [12] of 1960 nM. It also gave a growth at 0.005 µM [13] of 96%, a growth at 50 µM [14] of -47% and a growth at 0.05 µM [15] of 94%. The GI50 [16] was 720 nM, the LC50 (concentration killing 50% of cells) [16] was 2680 nM and the TGI [16] was 1390 nM. For the same molecule, the growth at 0.005 µM [17] was 99%, the growth at 0.05 µM [18] was 90% and the growth at 0.5 µM [19] was 84%. For the same molecule, the growth at 0.005 µM [20] was 95%, the growth at 0.05 µM [21] was 93% and the growth at 10 µM [22] was -33.6%. The GI50 [23] was 656 nM, the TGI [23] was 3720 nM and the CC50 [23] was greater than 50000 nM. For the same molecule, the growth at 0.005 µM [24] was 95%, the growth at 10 µM [25] was -18.6% and the growth at 10 µM [26] was -18.4%. It also gave a growth at 0.05 µM [27] of 97%, a growth at 50 µM [28] of -53% and a growth at 10 µM [29] of -52.9%. It also gave a growth at 0.005 µM [30] of 98%, a growth at 50 µM [31] of -16% and a growth at 50 µM [32] of -8%. It also gave a growth at 0.005 µM [33] of 100%, a growth at 5 µM [34] of -33% and a growth at 5 µM [35] of -86%. It also gave a growth at 5 µM [36] of -23%.
